# Assays:
# Assay in all cases: Kinase panel (mobility shift)
# Assay type in all cases: biochemical
# HIPK4 = molecular target: T1, HIPK4 (Homo sapiens, UniProt Q8NE63)
# T1 sequence (Q8NE63 1-616): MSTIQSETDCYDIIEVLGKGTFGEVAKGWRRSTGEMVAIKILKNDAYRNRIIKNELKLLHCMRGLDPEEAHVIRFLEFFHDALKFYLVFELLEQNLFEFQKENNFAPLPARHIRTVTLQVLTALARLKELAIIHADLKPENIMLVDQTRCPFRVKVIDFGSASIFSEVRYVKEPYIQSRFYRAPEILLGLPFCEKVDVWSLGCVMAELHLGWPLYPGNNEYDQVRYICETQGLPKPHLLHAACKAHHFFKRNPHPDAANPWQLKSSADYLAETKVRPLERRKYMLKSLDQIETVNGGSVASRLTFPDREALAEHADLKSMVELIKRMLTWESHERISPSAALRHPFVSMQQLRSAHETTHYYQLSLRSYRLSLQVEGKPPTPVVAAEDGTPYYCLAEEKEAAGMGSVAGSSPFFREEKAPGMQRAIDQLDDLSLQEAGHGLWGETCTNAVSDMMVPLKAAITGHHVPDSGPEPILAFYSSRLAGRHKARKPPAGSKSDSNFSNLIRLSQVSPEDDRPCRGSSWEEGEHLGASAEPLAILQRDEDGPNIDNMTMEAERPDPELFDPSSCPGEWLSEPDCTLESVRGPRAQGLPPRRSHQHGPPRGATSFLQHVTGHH
# Method in brief: (§1)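 Each kinase was incubated with a fluorescently labeled substrate and compound in a standard reaction mix. After the reaction was stopped, product and substrate were separated on microfluidic chips by electrophoretic mobility shift. Activity came from comparing product and substrate peak fluorescence, graded A (95% or greater), B (90%-94%) or C (80%-89%) at 5 um.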
# TAOK2 = molecular target: T2, TAOK2 (Homo sapiens, UniProt Q9UL54)
# T2 sequence (Q9UL54 1-1235): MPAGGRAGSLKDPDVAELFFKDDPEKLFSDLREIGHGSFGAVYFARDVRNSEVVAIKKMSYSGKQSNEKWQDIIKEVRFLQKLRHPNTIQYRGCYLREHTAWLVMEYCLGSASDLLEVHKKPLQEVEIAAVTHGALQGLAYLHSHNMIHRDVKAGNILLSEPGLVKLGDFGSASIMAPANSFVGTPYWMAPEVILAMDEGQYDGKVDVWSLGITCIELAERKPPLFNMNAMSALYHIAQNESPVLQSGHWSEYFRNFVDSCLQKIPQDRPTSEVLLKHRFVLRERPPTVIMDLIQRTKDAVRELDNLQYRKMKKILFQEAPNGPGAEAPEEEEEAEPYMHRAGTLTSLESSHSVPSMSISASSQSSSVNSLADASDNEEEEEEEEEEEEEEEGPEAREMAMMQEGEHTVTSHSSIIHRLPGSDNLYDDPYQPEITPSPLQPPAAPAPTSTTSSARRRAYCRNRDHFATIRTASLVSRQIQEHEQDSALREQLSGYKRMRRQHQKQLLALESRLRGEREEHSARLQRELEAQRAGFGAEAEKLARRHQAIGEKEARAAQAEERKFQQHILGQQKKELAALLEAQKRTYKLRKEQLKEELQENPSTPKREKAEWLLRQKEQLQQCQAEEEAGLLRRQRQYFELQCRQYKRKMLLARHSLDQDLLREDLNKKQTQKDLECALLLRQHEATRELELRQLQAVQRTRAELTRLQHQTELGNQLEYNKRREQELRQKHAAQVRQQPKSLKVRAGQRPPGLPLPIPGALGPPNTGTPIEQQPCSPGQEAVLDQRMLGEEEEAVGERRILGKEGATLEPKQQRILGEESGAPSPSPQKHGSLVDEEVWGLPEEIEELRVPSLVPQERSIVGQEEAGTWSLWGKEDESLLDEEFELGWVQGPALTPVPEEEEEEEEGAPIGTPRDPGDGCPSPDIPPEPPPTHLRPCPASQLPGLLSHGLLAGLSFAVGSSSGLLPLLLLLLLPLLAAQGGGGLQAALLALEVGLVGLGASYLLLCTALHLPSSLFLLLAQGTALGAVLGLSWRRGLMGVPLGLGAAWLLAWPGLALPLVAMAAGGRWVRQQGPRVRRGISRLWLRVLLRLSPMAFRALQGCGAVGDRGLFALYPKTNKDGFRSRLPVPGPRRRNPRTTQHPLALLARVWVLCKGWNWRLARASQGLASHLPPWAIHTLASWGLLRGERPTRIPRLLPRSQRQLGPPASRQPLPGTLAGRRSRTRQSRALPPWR
# Method in brief: as §1
# TYRO3 = molecular target: T3, TYRO3 (Homo sapiens, UniProt Q06418)
# T3 sequence (Q06418 41-890): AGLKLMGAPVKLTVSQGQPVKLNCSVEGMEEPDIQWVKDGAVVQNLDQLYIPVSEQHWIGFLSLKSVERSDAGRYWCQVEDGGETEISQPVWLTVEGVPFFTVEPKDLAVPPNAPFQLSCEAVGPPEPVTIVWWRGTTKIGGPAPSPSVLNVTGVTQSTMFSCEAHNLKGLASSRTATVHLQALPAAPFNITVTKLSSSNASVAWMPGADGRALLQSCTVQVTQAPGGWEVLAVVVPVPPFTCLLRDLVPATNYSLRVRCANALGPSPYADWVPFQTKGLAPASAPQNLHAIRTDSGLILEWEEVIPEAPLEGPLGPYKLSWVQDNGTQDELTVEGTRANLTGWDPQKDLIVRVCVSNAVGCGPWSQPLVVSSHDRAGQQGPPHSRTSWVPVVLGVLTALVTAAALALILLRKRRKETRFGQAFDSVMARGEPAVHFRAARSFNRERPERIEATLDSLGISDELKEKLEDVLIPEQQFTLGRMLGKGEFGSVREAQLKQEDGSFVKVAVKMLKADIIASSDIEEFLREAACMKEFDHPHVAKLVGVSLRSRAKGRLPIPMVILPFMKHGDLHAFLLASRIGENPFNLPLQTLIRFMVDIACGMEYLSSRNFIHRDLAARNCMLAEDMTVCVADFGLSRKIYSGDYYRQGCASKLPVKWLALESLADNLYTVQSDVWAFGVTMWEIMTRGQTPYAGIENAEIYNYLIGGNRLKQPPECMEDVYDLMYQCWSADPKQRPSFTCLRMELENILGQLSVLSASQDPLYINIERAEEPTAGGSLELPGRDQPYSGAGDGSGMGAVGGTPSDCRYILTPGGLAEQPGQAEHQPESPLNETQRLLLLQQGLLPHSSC
# Method in brief: as §1
# P38-b = P38-b (Homo sapiens, UniProt Q15759)
# Method in brief: as §1
# Sequence of P38-b (Q15759 whole entry, species assumed): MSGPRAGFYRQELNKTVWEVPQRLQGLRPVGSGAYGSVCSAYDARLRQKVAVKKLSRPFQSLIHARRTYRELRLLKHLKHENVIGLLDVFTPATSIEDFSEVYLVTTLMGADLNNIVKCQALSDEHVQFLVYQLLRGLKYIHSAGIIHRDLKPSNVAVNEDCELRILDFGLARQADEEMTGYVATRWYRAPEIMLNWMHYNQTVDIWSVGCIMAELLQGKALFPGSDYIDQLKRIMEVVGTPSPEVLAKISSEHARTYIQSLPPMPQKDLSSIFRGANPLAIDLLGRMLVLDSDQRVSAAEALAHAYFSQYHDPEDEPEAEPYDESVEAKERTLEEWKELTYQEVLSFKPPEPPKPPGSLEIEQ
SMILES,inhibition at 5 µM (HIPK4),inhibition at 5 µM (TAOK2),inhibition at 5 µM (TYRO3),inhibition at 5 µM (P38-b)
CSc1nc(C(=O)Nc2ccc(Oc3ccnc(N)c3Cl)c(F)c2)c(-c2ccc(F)cc2)o1 [Compound 1],90 to 94%,< 50%,50 to 79%,< 50%
CSc1nc(C(=O)Nc2ccc(Oc3cc4cnn(C)c4cc3Br)c(F)c2)c(-c2ccc(F)cc2)o1 [Compound 2],≥ 95%,< 50%,< 50%,50 to 79%
CNC(=O)c1cc(Oc2ccc(NC(=O)c3nc(SC)oc3-c3ccc(F)cc3Cl)cc2)ccn1 [Compound 3],≥ 95%,< 50%,90 to 94%,< 50%
CNC(=O)c1cc(Oc2ccc(NC(=O)c3nc(SC)oc3-c3ccc(F)c(F)c3)cc2)ccn1 [Compound 4],≥ 95%,< 50%,50 to 79%,50 to 79%
CNC(=O)c1cc(Oc2ccc(NC(=O)c3nc(SC)oc3-c3ccc(Cl)s3)cc2)ccn1 [Compound 5],90 to 94%,< 50%,80 to 89%,< 50%
CNC(=O)c1cc(Oc2ccc(NC(=O)c3nc(SC)oc3-c3ccc(F)cc3F)cc2)ccn1 [Compound 6],90 to 94%,< 50%,≥ 95%,< 50%
CNC(=O)c1cc(Oc2ccc(NC(=O)c3nc(SC)oc3-c3ccc(OC)cc3)cc2)ccn1 [Compound 7],90 to 94%,< 50%,< 50%,< 50%
CSc1nc(C(=O)Nc2ccc(Oc3ccnc(-c4cnn(C)c4)c3)c(F)c2)c(-c2ccc(F)cc2)o1 [Compound 11],≥ 95%,< 50%,≥ 95%,80 to 89%
CNC(=O)c1cc(Oc2ccc(NC(=O)c3nc(SC)oc3-c3ccc(F)cc3F)cc2F)ccn1 [Compound 12],90 to 94%,< 50%,90 to 94%,< 50%
CNC(=O)c1cc(Oc2ccc(NC(=O)c3nc(S(C)(=O)=O)sc3-c3ccc(F)cc3)cc2F)ccn1 [Compound 13],≥ 95%,< 50%,80 to 89%,< 50%

# Second part, the molecule after the results:
inhibition at 5 µM (HIPK4),inhibition at 5 µM (TAOK2),inhibition at 5 µM (TYRO3),inhibition at 5 µM (P38-b),SMILES
≥ 95%,80 to 89%,80 to 89%,< 50%,CNC(=O)c1cc(Oc2ccc(NC(=O)c3nc(NC)oc3-c3ccc(F)cc3)cc2F)ccn1 [Compound 14]
≥ 95%,< 50%,90 to 94%,< 50%,CNC(=O)c1cc(Oc2ccc(NC(=O)c3nc(OC)oc3-c3ccc(F)cc3)cc2F)ccn1 [Compound 15]
≥ 95%,< 50%,< 50%,< 50%,CNC(=O)c1cc(Oc2ccc(NC(=O)c3nc(SC)oc3-c3ccc(F)s3)cc2F)ccn1 [Compound 16]
≥ 95%,< 50%,< 50%,< 50%,CNC(=O)c1cc(Oc2ccc(NC(=O)c3nc(NC)oc3-c3ccc(F)s3)cc2F)ccn1 [Compound 17]
≥ 95%,< 50%,50 to 79%,< 50%,CNC(=O)c1cc(Oc2c(F)cc(NC(=O)c3nc(NC)sc3-c3ccc(F)cc3)cc2F)ccn1 [Compound 19]
≥ 95%,< 50%,< 50%,< 50%,CNC(=O)c1cc(Oc2ccc(NC(=O)c3nc(NC)sc3-c3ccc(F)cc3F)cc2F)ccn1 [Compound 21]
90 to 94%,50 to 79%,80 to 89%,< 50%,CNC(=O)c1cc(Oc2ccc(NC(=O)c3nc(NC)sc3-c3ccc(F)cc3C)cc2F)ccn1 [Compound 23]
≥ 95%,< 50%,50 to 79%,< 50%,CNC(=O)c1cc(Oc2ccc(NC(=O)c3nc(OC)oc3-c3ccc(F)c(F)c3)cc2F)ccn1 [Compound 24]
≥ 95%,< 50%,50 to 79%,< 50%,CNC(=O)c1cc(Oc2ccc(NC(=O)c3nc(OC)oc3-c3ccc(F)s3)cc2F)ccn1 [Compound 25]
≥ 95%,50 to 79%,90 to 94%,50 to 79%,CNC(=O)c1cc(Oc2ccc(NC(=O)c3nc(C4CC4)oc3-c3ccc(F)cc3)cc2F)ccn1 [Compound 26]
≥ 95%,< 50%,< 50%,< 50%,CSc1nc(C(=O)Nc2ccc(Oc3ccnc(C(=O)NC4CNC4)c3)c(F)c2)c(-c2ccc(F)s2)o1 [Compound 27]
≥ 95%,< 50%,< 50%,< 50%,CSc1nc(C(=O)Nc2ccc(Oc3ccnc(C(=O)NC4COC4)c3)c(F)c2)c(-c2ccc(F)s2)o1 [Compound 28]
≥ 95%,50 to 79%,50 to 79%,80 to 89%,CSc1nc(C(=O)Nc2ccc(Oc3ccnc(C(=O)NC4CNC4)c3)c(F)c2)c(-c2ccc(F)cc2)o1 [Compound 29]
≥ 95%,50 to 79%,≥ 95%,50 to 79%,CNC(=O)c1cc(Oc2ccc(NC(=O)c3nc(COC)oc3-c3ccc(F)cc3)cc2F)ccn1 [Compound 30]

# Source: US11629143B2, “HipK4 inhibitors and uses thereof” (Vibliome Therapeutics, LLC, priority 2020, dated 2023)
